Results as given in article PMC13544220, “Glycemic and bodyweight effects of GIPR coding variation reflect differences in surface expression and intrinsic functional impairment” (Science Advances, 2026).

What was measured:
[1] = test system: wild-type and variant SNAP-GIPR; assay: Mini-Gs recruitment (nanoBiT) in AD293 cells; format: cell-based, human; conditions: 100 nM GIP, mean, n=7
Method: AD293 cells were reverse transfected with the GIPR variant or wild-type plasmids plus mini-Gs-LgBiT in a 1:1 ratio using Lipofectamine 2000 in 96-well white-bottom microplates precoated with 0.01% poly-D-lysine. All variants were tested in parallel on each occasion to control for transfection efficiency differences between experiments. After 24 hours, media were removed, cells washed once, and HBSS (Hanks’ balanced salt solution) containing furimazine (Promega, UK) at a 1:100 dilution was added. […] Responses were quantified by as fractional change from baseline with subtraction of the response to vehicle to account for substrate depletion, from which the AUC (area under the curve) was calculated and scaled to the average response obtained from each experiment.

[2] = test system: wild-type and variant SNAP-GIPR; assay: cAMP concentration response (HTRF) in AD293 cells, SNAP-GIPR; format: cell-based, human
Method: (Imperial College London): 24 hours before the experiment, AD293 cells were reverse transfected with the GIPR variant or wild-type plasmids using Lipofectamine 2000 in 12-well plates. All variants were tested in parallel on each occasion to control for transfection efficiency differences between experiments. […] Data were fit using a three-parameter logistic model using GraphPad Prism 10.

## CC[C@H](C)[C@H](NC(=O)[C@H](CO)NC(=O)[C@H](Cc1ccc(O)cc1)NC(=O)[C@H](CC(=O)O)NC(=O)[C@H](CO)NC(=O)[C@@H](NC(=O)[C@H](Cc1ccccc1)NC(=O)[C@@H](NC(=O)CNC(=O)[C@H](CCC(=O)O)NC(=O)[C@H](C)NC(=O)[C@@H](N)Cc1ccc(O)cc1)[C@@H](C)O)[C@@H](C)CC)C(=O)N[C@@H](C)C(=O)N[C@@H](CCSC)C(=O)N[C@@H](CC(=O)O)C(=O)N[C@@H](CCCCN)C(=O)N[C@H](C(=O)N[C@@H](Cc1c[nH]cn1)C(=O)N[C@@H](CCC(N)=O)C(=O)N[C@@H](CCC(N)=O)C(=O)N[C@@H](CC(=O)O)C(=O)N[C@@H](Cc1ccccc1)C(=O)N[C@H](C(=O)N[C@@H](CC(N)=O)C(=O)N[C@@H](Cc1c[nH]c2ccccc12)C(=O)N[C@@H](CC(C)C)C(=O)N[C@@H](CC(C)C)C(=O)N[C@@H](C)C(=O)N[C@@H](CCC(N)=O)C(=O)N[C@@H](CCCCN)C(=O)NCC(=O)N[C@@H](CCCCN)C(=O)N[C@@H](CCCCN)C(=O)N[C@@H](CC(N)=O)C(=O)N[C@@H](CC(=O)O)C(=O)N[C@@H](Cc1c[nH]c2ccccc12)C(=O)N[C@@H](CCCCN)C(=O)N[C@@H](Cc1c[nH]cn1)C(=O)N[C@@H](CC(N)=O)C(=O)N[C@H](C(=O)N[C@H](C(=O)N[C@@H](CCC(N)=O)C(=O)O)[C@@H](C)O)[C@@H](C)CC)C(C)C)[C@@H](C)CC [GIP, glucose-dependent insulinotropic polypeptide, reference compound]
[1]; A207V
  mini-Gs recruitment: 1.64 vs. experimental average
[1]; A268V
  mini-Gs recruitment: 1.037 vs. experimental average
[1]; D66G
  mini-Gs recruitment: 0.1098 vs. experimental average
[1]; E252D
  mini-Gs recruitment: 1.347 vs. experimental average
[1]; E288G
  mini-Gs recruitment: 0.1501 vs. experimental average
[1]; E354Q
  mini-Gs recruitment: 1.309 vs. experimental average
[1]; E463Q
  mini-Gs recruitment: 1.656 vs. experimental average
[1]; G438S
  mini-Gs recruitment: 1.599 vs. experimental average
[1]; I378M
  mini-Gs recruitment: 1.145 vs. experimental average
[1]; I403V
  mini-Gs recruitment: 1.332 vs. experimental average
[1]; L100F
  mini-Gs recruitment: 1.391 vs. experimental average
[1]; L262H
  mini-Gs recruitment: 1.034 vs. experimental average
[1]; L262V
  mini-Gs recruitment: 1.282 vs. experimental average
[1]; L304R
  mini-Gs recruitment: 0.04884 vs. experimental average
[1]; R101H
  mini-Gs recruitment: 0.1049 vs. experimental average
[1]; R131S
  mini-Gs recruitment: 1.232 vs. experimental average
[1]; R136W
  mini-Gs recruitment: 0.7709 vs. experimental average
[1]; R183Q
  mini-Gs recruitment: 0.3712 vs. experimental average
[1]; R190Q
  mini-Gs recruitment: -0.001793 vs. experimental average
[1]; R196G
  mini-Gs recruitment: 1.201 vs. experimental average
[1]; R217L
  mini-Gs recruitment: 1.091 vs. experimental average
[1]; R300W
  mini-Gs recruitment: 1.262 vs. experimental average
[1]; R336P
  mini-Gs recruitment: 1.585 vs. experimental average
[1]; R341P
  mini-Gs recruitment: 0.3717 vs. experimental average
[1]; R404H
  mini-Gs recruitment: 1.074 vs. experimental average
[1]; S64A
  mini-Gs recruitment: 0.6095 vs. experimental average
[1]; S415G
  mini-Gs recruitment: 1.199 vs. experimental average
[1]; S415I
  mini-Gs recruitment: 1.365 vs. experimental average
[1]; S447T
  mini-Gs recruitment: 1.5239 vs. experimental average
[1]; T116R
  mini-Gs recruitment: 0.9756 vs. experimental average
[1]; WT
  mini-Gs recruitment: 1.184 vs. experimental average
[2]; AD293, SNAP-GIPR E288G, R190Q, R101H, 0.1% BSA
  cAMP signaling (∆LogEmax/EC50): markedly reduced responses
[2]; AD293, SNAP-GIPR R101H and R190Q
  cAMP agonism: very weak agonists
[2]; AD293, SNAP-GIPR S64A, R136W, R217L, vs wild-type
  cAMP signaling (∆LogEmax/EC50): moderately reduced
